Data as given in patent US12667626B2, “Compositions and methods relating to erythrocytes with adhered particles” (PRESIDENT AND FELLOWS OF HARVARD COLLEGE, priority 2019, dated 2026).

Experiments:
[1] = tested on: B16F10-Luc melanoma lung metastasis; test: Efficacy in early-stage B16F10-Luc lung metastasis model; type: in vivo, mice
Experimental: Efficacy studies on in vivo experimental lung metastasis model. Experimental lung metastasis model was established by intravenous injection of 1×10^5 B16F10-Luc cells in to the tail vein of female C57BL/6 mice. Efficacy for the treatment groups was evaluated in an early stage and late stage metastatic models. Mice were randomized based on the bioluminescence intensity in the lungs one day before the first injection of therapies. A control (Saline) group and three treatment groups (DOX-NPs, RBC-NPs, free DOX) at a dose of 5.2 mg/kg were evaluated for their efficacy (n=7 for all groups, unless otherwise specified).
For the early-stage metastatic model, treatments were given starting the day after the inoculation. Four injections were given over six days, i.e. day 1, 3, 5 and 7 after inoculation. On days 6, 8, 10, 12, 18, 23, 31 after inoculation, the mice were imaged using in vivo imaging (Perkin Elmer IVIS Spectrum™, MA, USA). Briefly, mice were injected intraperitoneally with 150 μL of 30 mg/mL Xenolight™-D-luciferin in saline. […] The average radiance (bioluminescence intensity) was evaluated using the software Living System®. The animals were further monitored for their survival.

[2] = Chemokine gradient assay (CXCL10 in lung and blood); type: in vivo, mice; settings: 5× higher dose, free form
Experimental: The chemokine gradient assay was conducted on the early-stage lung metastasis model as follows. To evaluate chemokine gradient restoration capability of the therapy, early-stage spontaneous lung metastasis model was established as described in the previous context. One saline and three treatment groups (5× free CXCL10 chemokine, ImmunoBait with anti-ICAM-1, and erythrocyte hitchhiked ImmunoBait with anti-ICAM-1) were included into the study. Treatments were given starting one week after surgery. Two injection sets were given on day 7 and day 10 after surgery. (n=4-5 for each time point for each group). Mice were sacrificed at 20 mins and 6 h after the second injection, blood was collected by cardiac puncture and lungs were excised. Chemokine content in lungs and blood were quantified as described above.
The chemokine gradient assay was conducted on the early-stage lung metastasis model as follows. To evaluate chemokine gradient restoration capability of the therapy, early-stage spontaneous lung metastasis model was established as described in the previous context. One saline and three treatment groups (5× free CXCL10 chemokine containing 12.5 μg CXCL10, ImmunoBait with anti-ICAM-1 containing 2.5 μg CXCL10, and erythrocyte hitchhiked ImmunoBait with anti-ICAM-1 containing 2.5 μg CXCL10) were included into the study. […] Chemokine content in lungs and blood were quantified as described above.

## COc1cccc2c1C(=O)c1c(O)c3c(c(O)c1C2=O)C[C@@](O)(C(=O)CO)C[C@@H]3O[C@H]1C[C@H](N)[C@H](O)[C@H](C)O1 [free drug, doxorubicin]
[1]; day 16, early-stage model
  lung metastasis burden inhibited: 94.2%
[1]; early-stage model, control 29 days
  median survival time: 32 days
[1]; treatment period, 5.2 mg/kg
  body weight change: sharp decline in the body weight

## CXCL10 [free chemokine]
[2]
  chemokine gradient established: weak chemokine gradient
